Data published in patent US7994291B2, “Human E3α ubiquitin ligase family” (Amgen Inc., priority 2000, dated 2011).
“Also recorded” adds a separate entry of the source.

How the values were obtained:
E3α = assay: 125I-ubiquitin conjugation to endogenous muscle proteins in Fraction II of muscle extracts from YAH tumor-bearing rats, with E3α inhibitor; format: biochemical, rat; settings: 10 mM inhibitor, 20 μg/ml bestatin, 37° C., 20 minutes, Fraction II of gastrocnemius muscle extract
Experimental: The rate of ubiquitin conjugation of the endogenous muscle proteins were carried out as described in Example 10 using the skeletal muscles from the YAH tumor-bearing rats. The frozen gastrocnemius muscles collected (via dissection at sacrifice) from 6 tumor-bearing rats were combined. The muscle extracts (20% weight/volume) were prepared by homogenizing the muscles in a buffer containing 50 mM Tris HCl (pH 8.00), 5 mM MgCl2, 2 mM DTT, protease inhibitor cocktail (Sigma P8340) and 10% glycerol. The homogenates were then centrifuged at 40,000 g for 1 hr and the resulting supernatants were used as crude muscle extracts.
For some assays, the crude muscle extracts were fractionated further by chromatography on DEAE-cellulose (Whatman, Clifton, N.J.) to remove endogenous ubiquitin as described by Soloman et al. (Proc. natl. Acad. Sci. U.S.A., 95: 12602-7, 1998). The bound material Fraction II, which contained most of the ubiquitin conjugating enzymes were eluted with 50 mM Tris, pH 8.0 containing 0.5M NaCl and 1 mM DTT. Both crude extracts and Fraction II were dialyzed prior to use for ubiquitination assay against buffer containing 20 mM Tris, pH 8.0, 2 mM DTT, 5 mM MgCl2, and 10% glycerol and stored at […] until use. Crude muscle extracts were used for ubiquitin conjugation to ^125I-α-lactalbumin. […]

[1] = tested on: differentiated C2C12 cells; assay: 125I-ubiquitin conjugation of cellular proteins in cytokine-treated differentiated C2C12 myotubes; format: cell-based, murine
Experimental: To further substantiate the enzymatic activity of huE3αI and huE3αII, ubiquitin conjugation to endogenous cellular proteins were measured in cultured muscle cell lines. Cultures of murine C2C12 or rat L6 myotube cells (ATCC accession nos. CRL-1772 and CRL-1458, respectively) were transfected with huE3αI or huE3αII full length cDNA under control of the CMV promoter using Lipofectamine 2000 Reagent (Gibco). Mock transfection with the pcDNA3.1 vector without a cDNA insert was performed as a control. Cell lysates were prepared as described above for the 293T cells and the resulting supernatants were used in ubiquitin conjugation reactions. For each reaction, 30 μg of C2C12or L6 myotube cell lysate was incubated with ^125I-ubiquitin (0.15 mg/ml, approximately ×10^7 cpm) in a total volume of 25-30 μl in a buffer containing 50 mM Tris, pH 8.0, 2 mM DTT, 5 mM MgCl2, 2 mM adenosine 5′-[-thio]triphosphate (ATP S), 50 μg/ml ubiquitin aldehyde, 20 μg/ml MG132 and protease inhibitor cocktail (Sigma P8340) at 37° C. for 30 minutes. Reactions were stopped by adding sample buffer and were subjected to 12% SDS PAGE. The gels were then dried and autoradiographed.
C2C12 cells were differentiated for 5 days to allow formation of myotubes. The differentiated myotubes were treated with 2 ng/ml of IL-6 for 5, 24 or 48 hours. […]

muE3αII = assay: Northern blot of muE3αII mRNA in cytokine-treated C2C12 myotubes; format: cell-based, mouse; settings: 10 ng/ml cytokine for 3 days and 5 days, differentiated C2C12 myotubes vs untreated
Experimental: Treatment with the proinflammatory cytokines, TNFα and IL-6, caused the induction of […] in C2C12 myotube cultures. C2C12 myoblasts were cultured in 100-mm dishes in an atmosphere of 5% CO2 at 37° C. in DMEM supplemented with 10% FBS and L-glutamine to reach 100% confluence. Myoblast differentiation was induced with DMEM supplemented with 2% horse serum and L-glutamine for 96 hours. Differentiated myotubes were then treated with TNFα (10 ng/ml; R&D Systems cat no. 210-TA) or IL-6 (10 ng/ml; R&D Systems cat no. 206-IL) for 3 days and 5 days.
After the 3 or 5 day incubation, RNA from differentiated C2C12 cultures was isolated with Trizol Reagent and Northern blot analysis was carried out as described in Example 11. Isolated RNA from untreated C2C12 cultures were used as a control. The blots were hybridized with a ^32P-labeled cDNA probes specific for muE3αI (lower panels) and muE3αII (upper panels). The probes were generated as described in Example 12.

Molecule | effect on accelerated muscle protein ubiquitination of tumor-bearing rats (E3α) | ubiquination of cellular proteins ([1]; 2 ng/ml IL-6 for 5, 24 or 48 hours, detectable 5 hours post-treatment, time dependent) | expression of muE3αII mRNA (muE3αII) | 125I-ubiquitin conjugation of cellular proteins ([1]; TNFα 0, 3, 6, 10, 20 ng/ml for one hour)
COC(=O)[C@@H](N)CCCNC(=N)N [arginine methylester, arginine methyl ester] | virtually abolished the accelerated ubiquitination activity; also recorded: virtually abolished all the increased ubiquitination activities |  |  | 
IL-6: proinflammatory cytokine (R&D Systems cat no. 206-IL) |  | marked increase | markedly increased | 
TNFα |  |  | markedly increased | dose dependent increase
